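Interpolation was linear, between the two tested concentrations surrounding the appropriate level; five concentrations were tested over 48 hours in 96-well plates. TGI: concentration producing complete growth inhibition.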
Experiments:
Assay in all cases: NCI-60 cell line screen, 48 h
[1] = tested on: SNB-75 CNS
[2] = tested on: NCI-H460 lung
[3] = tested on: HCT-116 colon
[4] = tested on: HOP-92 NSCLC
[5] = tested on: K-562 leukemia
[6] = tested on: SW-620 colon
[7] = tested on: NCI-H226 lung
[8] = tested on: NCI-H23 lung
[9] = tested on: SF-295 CNS
[10] = tested on: UACC-257 melanoma
[11] = tested on: MOLT-4 leukemia
[12] = tested on: HT29 colon
[13] = tested on: M14 melanoma
[14] = tested on: CAKI-1 renal
[15] = tested on: OVCAR-5 ovarian
[16] = tested on: COLO 205 colon
[17] = tested on: NCI/ADR-RES ovarian
[18] = tested on: TK-10 renal
[19] = tested on: MDA-N
[20] = tested on: SN12C renal
[21] = tested on: SR leukemia
[22] = tested on: SF-268 CNS
[23] = tested on: SK-OV-3 ovarian
[24] = tested on: LOX IMVI melanoma
[25] = tested on: OVCAR-8 ovarian
[26] = tested on: HOP-62 NSCLC
[27] = tested on: UO-31 renal
[28] = tested on: OVCAR-3 ovarian
[29] = tested on: SF-539 CNS
[30] = tested on: SK-MEL-5 melanoma
[31] = tested on: SNB-19 CNS
[32] = tested on: SK-MEL-28 melanoma
[33] = tested on: T-47D breast
[34] = tested on: RPMI-8226 leukemia
[35] = tested on: U251 CNS
[36] = tested on: SK-MEL-2 melanoma
[37] = tested on: UACC-62 melanoma
[38] = tested on: DU-145 prostate
[39] = tested on: A498 renal
[40] = tested on: CCRF-CEM leukemia
[41] = tested on: MALME-3M melanoma
[42] = tested on: HL-60(TB) leukemia
[43] = tested on: HCC-2998 colon
[44] = tested on: 786-0 renal
[45] = tested on: MDA-MB-231 breast
[46] = tested on: EKVX NSCLC
[47] = tested on: NCI-H522 lung
[48] = tested on: A549 NSCLC
[49] = tested on: MDA-MB-435
[50] = tested on: BT-549 breast
[51] = tested on: ACHN renal
[52] = tested on: HS 578T breast
[53] = tested on: OVCAR-4 ovarian
[54] = tested on: KM12 colon
[55] = tested on: PC-3 prostate
[56] = tested on: IGROV1 ovarian
[57] = tested on: RXF 393 renal
[58] = tested on: HCT-15 colon
[59] = tested on: MCF7 breast

COc1ccc(CNC(=O)[C@H](Cc2ccc(O)cn2)NC(C)=O)cc1OC
TGI [1]: > 100 µM | TGI [2]: > 100 µM | TGI [3]: > 100 µM | TGI [4]: > 100 µM | TGI [5]: > 100 µM | TGI [6]: > 100 µM | TGI [7]: > 100 µM | TGI [8]: > 100 µM | TGI [9]: > 100 µM | TGI [10]: > 100 µM | TGI [11]: > 100 µM | TGI [12]: > 100 µM | TGI [13]: > 100 µM | TGI [14]: > 100 µM | TGI [15]: > 100 µM | TGI [16]: > 100 µM | TGI [17]: > 100 µM | TGI [18]: > 100 µM | TGI [19]: > 100 µM | TGI [20]: > 100 µM | TGI [21]: > 100 µM | TGI [22]: > 100 µM | TGI [23]: > 100 µM | TGI [24]: > 100 µM | TGI [25]: > 100 µM | TGI [26]: > 100 µM | TGI [27]: > 100 µM | TGI [28]: > 100 µM | TGI [29]: > 100 µM | TGI [30]: > 100 µM | TGI [31]: > 100 µM | TGI [32]: > 100 µM | TGI [33]: > 100 µM | TGI [34]: > 100 µM | TGI [35]: > 100 µM | TGI [36]: > 100 µM | TGI [37]: > 100 µM | TGI [38]: > 100 µM | TGI [39]: > 100 µM | TGI [40]: > 100 µM | TGI [41]: > 100 µM | TGI [42]: > 100 µM | TGI [43]: > 100 µM | TGI [44]: > 100 µM | TGI [45]: > 100 µM | TGI [46]: > 100 µM | TGI [47]: > 100 µM | TGI [48]: > 100 µM | TGI [49]: > 100 µM | TGI [50]: > 100 µM | TGI [51]: > 100 µM | TGI [52]: > 100 µM | TGI [53]: > 100 µM | TGI [54]: > 100 µM | TGI [55]: > 100 µM | TGI [56]: > 100 µM | TGI [57]: > 100 µM | TGI [58]: > 100 µM | TGI [59]: > 100 µM

Cc1ccc(-c2cc(-c3cc(-c4ccc(C)cc4C)n[nH]3)[nH]n2)c(C)c1
TGI [1]: 34.8 µM | TGI [2]: 21.4 µM | TGI [3]: 33 µM | TGI [4]: 39 µM | TGI [5]: 37.4 µM | TGI [6]: 33.1 µM | TGI [7]: 42.9 µM | TGI [8]: 41.9 µM | TGI [9]: 26.5 µM | TGI [10]: 26.7 µM | TGI [11]: 36.8 µM | TGI [12]: 35.1 µM | TGI [13]: 40.3 µM | TGI [14]: 36.2 µM | TGI [15]: 59 µM | TGI [16]: > 62 µM | TGI [17]: 43 µM | TGI [18]: 29.4 µM | TGI [19]: 34.1 µM | TGI [20]: 30.7 µM | TGI [21]: 26.5 µM | TGI [22]: 27.5 µM | TGI [23]: 29.4 µM | TGI [24]: 38.4 µM | TGI [25]: 43.1 µM | TGI [26]: 30.2 µM | TGI [27]: 45.7 µM | TGI [28]: 26.9 µM | TGI [29]: 34 µM | TGI [30]: 56.2 µM | TGI [31]: 41.2 µM | TGI [32]: 32.4 µM | TGI [33]: > 74.4 µM | TGI [34]: 10.5 µM | TGI [35]: 27.6 µM | TGI [36]: 36.2 µM | TGI [37]: > 62 µM | TGI [38]: 33.1 µM | TGI [39]: 34.1 µM | TGI [40]: 8.45 µM | TGI [41]: 25 µM | TGI [42]: 0.0792 µM | TGI [43]: 28.9 µM | TGI [44]: 26.2 µM | TGI [45]: 32.8 µM | TGI [46]: 46 µM | TGI [47]: 30.3 µM | TGI [48]: > 52.4 µM | TGI [49]: 31.1 µM | TGI [50]: 42.7 µM | TGI [51]: 24.4 µM | TGI [52]: 44.6 µM | TGI [53]: 29.1 µM | TGI [54]: 49 µM | TGI [55]: 29.2 µM | TGI [56]: 28.6 µM | TGI [57]: 32.7 µM | TGI [58]: 44.8 µM | TGI [59]: 38.8 µM
